# Measured values as given in patent US10322136B2, “Composition for inhibiting growth or proliferation of chronic myelogenous leukemia cancer stem cells, and screening method therefor” (HIROSHIMA UNIVERSITY, priority 2015, dated 2019).
# Key:
# CML-KLS+ cells = assay: Metabolomic analysis of dipeptides in KLS+ cells from treated CML-affected mice; type: in vivo, mouse; details: cefadroxil 36 mg/kg/day oral gavage for 30 days
# Description: To detect inhibition of dipeptide uptake in vivo, immature KLS^+ cells were isolated from tet-inducible CML-affected (Tal1-tTA^+TRE-BCR-ABL1^+) mice (n=4 mice in each of the three independent experiments), and normal healthy littermate (Tal1-tTA^+) mice (n=6 mice in each of the two independent experiments) that had received vehicle or cefadroxil (36 mgKg^−1day^−1) by oral gavage for 30 days. […] In all cases, isolated cell pellets were frozen at −80° C. immediately after obtaining. Metabolomic profiling was performed by Metabolon Inc. (Durham, N.C.) using ultrahigh-performance liquid chromatography/mass spectroscopy (UPLC/MS/MS) and gas chromatography/MS (GC/MS). Data were compiled using the Metabolon LIMS (Laboratory Information Management System). The UPLC/MS/MS portion of the platform was based on a Waters Acquity UPLC (Waters) and a Q-Exactive high-resolution/accurate mass spectrometer (Thermo Scientific) interfaced with a heated electrospray ionization (HESI-II) source and Orbitrap mass analyzer. GC/MS was performed by a Trace DSQ fast-scanning single-quadrupole mass spectrometer using electron impact ionization (Thermo-Finnigan).
# S6 ribosomal protein = assay: Duolink in situ PLA, S6 ribosomal protein phosphorylation in LT-CML cancer stem cells; type: cell-based, mouse; details: 30 min; GlySar or cefadroxil 5 μM; rapamycin 100 nM
# Description: (§1) To examine phosphorylation of Smad2, Smad3, p38MAPK, AMPK, and S6 ribosomal protein, and Foxo3a-Smad2 and Foxo3a-Smad3 interactions, Duolink® in situ PLA assay (Olink Bioscience) was used. LT-CML stem cells, ST-CML stem cells, CD48^+, MPP, and KLS^− CML cells that were freshly isolated from CML-affected mice, and LT-normal HSCs that were freshly isolated from healthy control littermates, were immediately fixed with 4% paraformaldehyde for 30 min.
# (§2) For in vitro inhibitor experiments, LT-CML stem cells were incubated in 3% O2 at 37° C. for 30 min with vehicle (control; artificial gastric fluid solution (900 ml ddH2O containing 2.0 g of NaCl, 7 ml of conc. HCl and 3.2 g of pepsin)), 5 μM Ly364947 (TGF-β type I receptor kinase Alk5 inhibitor; Merck), 5 μM SB203580 (p38MAPK inhibitor; LC Laboratories), 5 μM GlySar (dipeptide transporter inhibitor; Sigma-Aldrich), 5 μM cefadroxil (dipeptide transporter inhibitor; Sigma-Aldrich), or 100 nM rapamycin (mTORC1 inhibitor; Cell Signaling Technologies). […]
# (§3) The proximate binding of these antibodies was then detected using Duolink® in situ PLA system which employs a set of two secondary antibodies in which one is conjugated to a minus strand PLA probe and the other is conjugated to a plus strand PLA probe. […] The number of fluorescent foci per single cell was quantified using Duolink®Image Tool software (Olink Bioscience).
# Smad3 Ser208 = assay: Duolink in situ PLA, Smad3 Ser208 phosphorylation in LT-CML cancer stem cells; type: cell-based, mouse; details: 30 min; GlySar or cefadroxil 5 μM; rapamycin 100 nM
# Description: as §1
# (§4) For in vitro inhibitor experiments, LT-CML stem cells were incubated in 3% O2 at 37° C. for 30 min with vehicle (control; artificial gastric fluid solution (900 ml ddH2O containing 2.0 g of NaCl, 7 ml of conc. HCl and 3.2 g of pepsin)), 5 μM Ly364947 (TGF-β type I receptor kinase Alk5 inhibitor; Merck), 5 μM SB203580 (p38MAPK inhibitor; LC Laboratories), 5 μM GlySar (dipeptide transporter inhibitor; Sigma-Aldrich), 5 μM cefadroxil (dipeptide transporter inhibitor; Sigma-Aldrich), or 100 nM rapamycin (mTORC1 inhibitor; Cell Signaling Technologies). Treated cells were fixed with 4% paraformaldehyde for 30 min, and treated with 0.25% Triton X-100 for 15 min, washed and blocked by incubation in 5% FBS in TBS for 1 hr.
# (§5) The proximate binding of these antibodies was then detected using Duolink® in situ PLA system which employs a set of two secondary antibodies in which one is conjugated to a minus strand PLA probe and the other is conjugated to a plus strand PLA probe. Nuclei were stained with DNA marker DAPI (Sigma). Stained slides were mounted using Fluoromount Plus (Diagnostic Biosystems) and fluorescent images were acquired by confocal microscopy (FV10i, Olympus) and Photoshop software (Adobe). The number of fluorescent foci per single cell was quantified using Duolink®Image Tool software (Olink Bioscience).
# AMPK = assay: Duolink in situ PLA, AMPK phosphorylation in LT-CML cancer stem cells; type: cell-based, mouse; details: LT-CML cancer stem cells in vitro
# Description: as §1, §4, §5
# normal HSCs = details: mouse, in vivo
# Description: C57BL/6 (CD45.2 for the Ly5 locus) and congenic C57BL/6 (CD45.1 for the Ly5 locus; B6-Ly5.1) mice were purchased from Sankyo-Lab Service (Tsukuba, Japan). Lethally irradiated (9 Gy) C57BL/6 (CD45.2) recipient mice were reconstituted with 1×10^4 normal KLS^+ cells (HSCs) from congenic C57BL/6 (CD45.1) (B6-Ly5.1) mice in competition with 5×10^5 unfractionated BM MNCs derived from C57BL/6 (CD45.2) mice. Transplanted recipients then received vehicle or cefadroxil (36 mgKg^−1day^−1) from day 0 to 8 weeks post transplantation. Reconstitution of donor-derived cells (CD45.1) was monitored at 4 and 8 weeks post transplantation by flow cytometric analysis of peripheral blood mononuclear cells stained with monoclonal antibodies (mAbs) against CD45.2 (104)-FITC and CD45.1 (A20)-PE.
# Raptor-Ser863 = assay: Duolink in situ PLA, Raptor-Ser863 phosphorylation in LT-CML cancer stem cells; type: cell-based, mouse; details: 30 min; GlySar or cefadroxil 5 μM; rapamycin 100 nM
# Description: as §1, §2, §3
# [1] = system: human CD34+CD38-Lin- CML-LICs; assay: Colony-forming capacity of human CML leukemia-initiating cells; type: cell-based; details: 5 μM cefadroxil, 5 days, three patients
# Description: Viable BM MNCs from three human patients with chronic phase CML were purchased from All cells (#06-255, #06-620, and #147742, Alameda, Calif., USA). Documents confirming the informed consent of the patient are available in http://www.veritastk.co.jp/attached/3978/AllCells_BM_Informed_Consent_Form.pdf. These cells were stained with anti-CD34(8G12), anti-CD38(HIT2), anti-CD3(SK7), anti-CD16(3G8), anti-CD19(SJ25C1), anti-CD20(L27), anti-CD14(MpP9), and anti-CD56(NCAM16.2) antibodies (all purchased from BD Biosciences). A mixture of mAbs recognizing CD3, CD16, CD19, CD20, CD14 and CD56 was used to identify Lin^− cells, and CD34^+CD38^−Lin^− cells were purified. To determine the effects of treatment with cefadroxil (5 μM) alone, or with a combination of cefadroxil+IM (1 μM; Axon Medchem) or dasatinib (500 nM; LC laboratories), CD34^+CD38^−Lin^− cells were cultured on OP-9 stromal cells under hypoxic (3% O2) conditions. After harvesting and washing with PBS, the colony-forming ability of the most primitive human CML leukemia-initiating cells (LICs) was evaluated by culture in semi-solid methylcellulose medium containing SCF, GM-CSF, IL-3, IL-6, G-CSF, and erythropoietin (Methocult GF+ H4435; Stem Cell Technologies). After growth for 7 days at 37° C. under hypoxic (3% O2) conditions, colony numbers were counted under a light microscope.
# [2] = system: Foxo3a-/- LT-CML cancer stem cells; assay: Colony-forming capacity of Foxo3a-/- LT-CML cancer stem cells; type: cell-based, mouse; details: cefadroxil treatment in vitro
# Description: To establish our Foxo3a-deficient tet-inducible CML mouse model, Foxo3a-deficient mice 42 (C57BL/6; F5) were crossed with Tal-tTA and TRE-BCR-ABL1 transgenic mice that were backcrossed for five generations in the C57BL/6 background, respectively. LT-CML stem cells or LT-normal HSCs (1×10^3/plate) were co-cultured on OP-9 stromal cells for 5 days in the presence of either vehicle (control) or a dipeptide transporter inhibitor cefadroxil (5 μM). Cells were harvested, washed with PBS, and plated in semi-solid methylcellulose medium containing SCF, IL-3, IL-6 and erythropoietin (Methocult GF M3434; Stem Cell Technologies). After growth for 7 days in a humidified atmosphere containing 5% CO2 at 37° C., colony numbers were counted under a light microscope.
compound,measurement,setting,value
CC1=C(C(=O)O)N2C(=O)[C@@H](NC(=O)[C@H](N)c3ccc(O)cc3)[C@H]2SC1 [cefadroxil],levels of several dipeptides in immature CML-KLS+ cells,CML-KLS+ cells,decreased
same,phosphorylation of S6,S6 ribosomal protein,decreased phosphorylation
same,Smad3 Ser208 phosphorylation,Smad3 Ser208,blocked
same,phosphorylation of AMPK,AMPK,increased
same,frequency of donor-derived CD45.1 MNCs in peripheral blood,normal HSCs,no increase
same,phosphorylation of Raptor-Ser863,Raptor-Ser863,decreased phosphorylation
same,colony-forming capacity of human CML-LIC samples,[1],suppressed
same,number of colonies formed by Foxo3a-/- LT-CML cancer stem cells,[2],not altered
